This is an account of results in US4933368A, “N-phenylbenzamide derivatives” (Godecke Aktiengesellschaft, priority 1983, dated 1990).

For experiment [1], the system named is allogeneic skin grafts. Kind of experiment: Skin graft survival test in rhesus monkeys. The format is in vivo, rhesus monkeys (Macaca mulatta). As to conditions: for lengthening of the normal graft survival time: 10 mg/kg i.g. 1× daily for 10 days, vs normal survival stated as ten days.
Experimental: Preparation: Freshly prepared before each
Route of Intragastric via stomach tube,
administration: suspended in 0.8% Methocel
Altogether four allogeneic skin grafts from two different donor animals are transferred crosswise to one unrelated receiving animal. At first the grafts are removed under ketamine narcosis from the shaven and cleaned stomach skin of the donor animals and freed of any fat attached. The four graft receptor sites are prepared on the shaven and cleaned back of the receiving animal under ketamine narcosis by removing suitably sized pieces of skin. Subsequent to successful hemostasis, the grafts are spread out on the graft receptor sites and sewn to the edges of the wound. The wound is covered with a suitable dressing material and this is fixed with an elastic bandage. The bandage is opened on the 5th, 7th, and 9th day after grafting and the function of the grafts examined. On the 9th day the bandage is no longer replaced. The graft function is then controlled daily until rejection has occurred.
Controls are dispensed within this trial on primates for ethical reasons. Comparisons are drawn with the normal survival of allogeneic skin grafts or historic controls, stated as ten days.
For experiment [2], the system named is allogeneic skin grafts. Kind of experiment: Trial I, skin graft survival test in rats (recipient Long Evans, donor Lewis), vs azathioprine + methylprednisolone. In kind it is in vivo.
Experimental: As suspension freshly prepared
before each administration
Route of Intragastric via stomach tube,
suspended in 0.8% Methocel
Volume: 0.01 ml per gram body weight and dose
Trial I/from Day -3 before grafting to Day +6
Trial I/10 mg/kg over 6 days, afterwards 5 mg/kg
Two allogeneic skin grafts from a donor rat are transferred to a receiving rat from an unrelated inbred strain. The panniculus carnosus attached to the graft may either be removed by dissection (suprapannicular graft) or be left on the graft (subpannicular graft). Grafting is conducted on Day 0 under light ether narcosis subsequent to shaving and cleanup of the grafting sites. The grafts are fixed on the graft receptor sites by dressing with a suitable bandage. From Day +9 a protective colar is placed on the animals, the bandage removed, and the status of the grafts daily controlled. The assessment of the graft function is conducted by means of a graduation scale, which allows for differentiation of rejection corresponding to a three-degree of severity score. The trial ends on the day when 50% of the animals of one group have rejected both grafts. The lengthening of the graft survival time in comparison to the controls is determined in days.
Recipient: Long Evans .male., Donor: Lewis .male.. Two suprapannicular grafts were transferred from a donor to a recipient.
Experiment [3] deals with murine tumors and human tumor xenografts. Kind of experiment: Antineoplastic activity in tumor-carrying animals, general statements. The format is in vivo, mice.
Setting [4] is: intragastric / oral, vs untreated control.

“Also recorded” adds a separate entry of the source.

As for `Nc1ccc(C(=O)Nc2ccccc2N)cc1` [Substance A, 4-Amino-N-(2'-aminophenyl)-benzamide], in experiment [1] (rhesus monkeys, 10 mg/kg i.g., 10 mg/kg), the immunosuppressive action entry was “distinct immunosuppressive action; also recorded: markedly clear”. Besides, the “lengthening of the normal graft survival time” value in experiment [1] (test animal YL) is reported as “four to five”. Moreover, in experiment [1] (test animal ZE), the “lengthening of the normal graft survival time” value was “six to seven”. The “effect compared with standard medication” value in experiment [2] (Trial I, vs azathioprine and methylprednisolone) is “superior to an immunosuppressive standard medication comprising azathioprine and methylprednisolone”. Further, the “effect compared with comparison medication” value in experiment [2] (rats, both trials, far smaller substance quantities) is “at least equally as effective as the comparison medication”. In addition, the “tumor regression late in an extended treatment regimen” value in experiment [3] (after just two days' rest) is on record as “partial regression of tumors”. Also, in experiment [3] (setting [4]), the “average survival time of tumor-carrying mice” value is “significant increase in the average survival time” and the “retardation in tumor growth” value is recorded as “distinct retardation in the growth of the tumor”. In experiment [3] (mouse, in vivo), the “schedule dependence of activity” value is “schedule-dependent, with once daily treatment superior to either more highly fractionated or to intermittent regimens”. Also, the “cures and cell kills” value in experiment [3] (oral, refractory tumor models in mice) is “significant number of cures and cell kills”. Besides, the “anticancer activity, overall” value in experiment [3] (spectrum of preclinical tumor models) was “significant activity against a spectrum of preclinical tumor models”.
